In patent US7368578B2, “Five-membered heterocyclic compounds” (Takeda Pharmaceutical Company Limited, priority 2002, dated 2008):

Question: With `CCOC(=O)c1ccc(-c2nc(COc3ccc(COc4nn(-c5ccccc5)cc4C=O)cc3OC)c(C)o2)o1` [Example 243, ethyl 5-{4-[(4-{[(4-formyl-1-phenyl-1H-pyrazol-3-yl)oxy]methyl}-2-methoxyphenoxy)methyl]-5-methyl-1,3-oxazol-2-yl}-2-furancarboxylate] as the molecule, how does the melting point read?
Answer: 143 to 145 °C

Question: Which melting point does the source give for `CCOC(=O)c1ccc(-c2nc(COc3ccc(COc4nn(-c5ccccc5)cc4/C=C/c4csc(CC)n4)cc3OC)c(C)o2)o1` [Example 244 (E form), ethyl 5-[4-({4-[({4-[(E)-2-(2-ethyl-1,3-thiazol-4-yl)ethenyl]-1-phenyl-1H-pyrazol-3-yl}oxy)methyl]-2-methoxyphenoxy}methyl)-5-methyl-1,3-oxazol-2-yl]-2-furancarboxylate] here?
Answer: 150 to 151 °C

Question: With `CCOC(=O)c1ccc(-c2nc(COc3ccc(COc4nn(-c5ccccc5)cc4/C=C\c4csc(CC)n4)cc3OC)c(C)o2)o1` [Example 244 (Z form), ethyl 5-[4-({4-[({4-[(Z)-2-(2-ethyl-1,3-thiazol-4-yl)ethenyl]-1-phenyl-1H-pyrazol-3-yl}oxy)methyl]-2-methoxyphenoxy}methyl)-5-methyl-1,3-oxazol-2-yl]-2-furancarboxylate] as the molecule, how does the melting point read?
Answer: 133 to 135 °C

Question: Which melting point does the source give for `COc1cc(C(=O)Nc2nn(-c3ccccc3)cc2C=O)ccc1OCc1nc(-c2ccccc2)oc1C` [Example 245, N-(4-formyl-1-phenyl-1H-pyrazol-3-yl)-3-methoxy-4-[(5-methyl-2-phenyl-1,3-oxazol-4-yl)methoxy]benzamide] here?
Answer: 234 to 235 °C

Question: With `CCOC(=O)Cc1ccc(-c2nc(COc3ccc(COc4nn(-c5ccccc5)cc4C=O)cc3OC)c(C)o2)cc1` [Example 246, ethyl (4-{4-[(4-{[(4-formyl-1-phenyl-1H-pyrazol-3-yl)oxy]methyl}-2-methoxyphenoxy)methyl]-5-methyl-1,3-oxazol-2-yl}phenyl)acetate] as the molecule, how does the melting point read?
Answer: 157 to 158 °C

Question: For `CCOC(=O)Cc1cccc(-c2nc(COc3ccc(COc4nn(-c5ccccc5)cc4C=O)cc3OC)c(C)o2)c1` [Example 253, ethyl (3-{4-[(4-{[(4-formyl-1-phenyl-1H-pyrazol-3-yl)oxy]methyl}-2-methoxyphenoxy)methyl]-5-methyl-1,3-oxazol-2-yl}phenyl)acetate], which melting point is on record?
Answer: 145 to 146 °C

Question: Which melting point does the source give for `COC(=O)c1cc(-c2nc(COc3ccc(COc4nn(-c5ccccc5)cc4C=O)cc3OC)c(C)o2)ccc1OS(C)(=O)=O` [Example 255, methyl 5-{4-[(4-{[(4-formyl-1-phenyl-1H-pyrazol-3-yl)oxy]methyl}-2-methoxyphenoxy)methyl]-5-methyl-1,3-oxazol-2-yl}-2-(methanesulfonyloxy)benzoate] here?
Answer: 136 to 137 °C

Question: For `COC(=O)c1cc(-c2nc(COc3ccc(COc4nn(-c5ccccc5)cc4C=O)cc3OC)c(C)o2)ccc1OC` [Example 256, methyl 5-{4-[(4-{[(4-formyl-1-phenyl-1H-pyrazol-3-yl)oxy]methyl}2-methoxyphenoxy)methyl]-5-methyl-1,3-oxazol-2-yl}-2-methoxybenzoate], which melting point is on record?
Answer: 165 to 166 °C

Question: With `CCOC(=O)/C=C/c1nc(-c2ccccc2)oc1COc1ccc(OCc2nc(-c3ccccc3)oc2C)cc1` [Example 258, ethyl (2E)-3-[5-({4-[(5-methyl-2-phenyl-1,3-oxazol-4-yl)methoxy]phenoxy}methyl)-2-phenyl-1,3-oxazol-4-yl]-2-propenoate] as the molecule, how does the melting point read?
Answer: 107 to 108 °C

Question: For `CCOC(=O)/C=C/c1cn(Cc2ccccc2)nc1OCc1ccc(OCc2nc(-c3ccco3)oc2C)c(OC)c1` [Example 259, ethyl (2E)-3-{1-benzyl-3-[(4-{[2-(2-furyl)-5-methyl-1,3-oxazol-4-yl]methoxy}-3-methoxybenzyl)oxy]-1H-pyrazol-4-yl}-2-propenoate], which melting point is on record?
Answer: 147 to 148 °C

Question: Which melting point does the source give for `COc1cc(COc2nn(Cc3ccccc3)cc2/C=C/C(=O)O)ccc1OCc1nc(-c2ccco2)oc1C` [Example 260, (2E)-3-{1-benzyl-3-[(4-{[2-(2-furyl)-5-methyl-1,3-oxazol-4-yl]methoxy}-3-methoxybenzyl)oxy]-1H-pyrazol-4-yl}-2-propenoic acid] here?
Answer: 175 to 176 °C

Question: Which melting point does the source give for `Cc1oc(-c2ccccc2)nc1COc1ccc(OCc2oc(-c3ccccc3)nc2/C=C/C(=O)O)cc1` [Example 261, (2E)-3-[5-({4-[(5-methyl-2-phenyl-1,3-oxazol-4-yl)methoxy]phenoxy}methyl)-2-phenyl-1,3-oxazol-4-yl]-2-propenoic acid] here?
Answer: 209 to 210 °C

Question: With `COc1cc(COc2nn(-c3ccccc3)cc2/C=C2\SC(=O)NC2=O)ccc1OCc1nc(-c2ccco2)oc1C` [Example 262, (5Z)-5-({3-[(4-{[2-(2-furyl)-5-methyl-1,3-oxazol-4-yl]methoxy}-3-methoxybenzyl)oxy]-1-phenyl-1H-pyrazol-4-yl}methylene)-1,3-thiazolidine-2,4-dione] as the molecule, how does the melting point read?
Answer: 252 to 253 °C

Question: Which melting point does the source give for `CCOC(=O)c1cnc(-c2ccccc2)nc1OCc1ccc(OCc2nc(-c3ccco3)oc2C)c(OC)c1` [Example 263, ethyl 4-[(4-{[2-(2-furyl)-5-methyl-1,3-oxazol-4-yl]methoxy}-3-methoxybenzyl)oxy]-2-phenylpyrimidine-5-carboxylate] here?
Answer: 142 to 143 °C

Question: For `CCOC(=O)c1cn(C)nc1OCc1ccc(OCc2nc(-c3ccccc3)oc2C)c(OC)c1` [Example 264, ethyl 3-{[3-methoxy-4-(5-methyl-2-phenyl-1,3-oxazol-4-ylmethoxy)benzyl]oxy}-1-methyl-1H-pyrazole-4-carboxylate], which melting point is on record?
Answer: 134 to 135 °C

Question: For `COc1cc(COc2nn(C)cc2C(=O)O)ccc1OCc1nc(-c2ccccc2)oc1C` [Example 265, 3-{[3-methoxy-4-(5-methyl-2-phenyl-1,3-oxazol-4-ylmethoxy)benzyl]oxy}-1-methyl-1H-pyrazole-4-carboxylic acid], which melting point is on record?
Answer: 169 to 170 °C

Question: Which melting point does the source give for `COc1cc(COc2nn(C)cc2CO)ccc1OCc1nc(-c2ccccc2)oc1C` [Example 266, (3-{[3-methoxy-4-(5-methyl-2-phenyl-1,3-oxazol-4-ylmethoxy)benzyl]oxy}-1-methyl-1H-pyrazol-4-yl)methanol] here?
Answer: 108 to 109 °C

Question: With `COc1cc(COc2nn(C)cc2C=O)ccc1OCc1nc(-c2ccccc2)oc1C` [Example 267, 3-{[3-methoxy-4-(5-methyl-2-phenyl-1,3-oxazol-4-ylmethoxy)benzyl]oxy}-1-methyl-1H-pyrazole-4-carbaldehyde] as the molecule, how does the melting point read?
Answer: 123 to 124 °C

Question: For `COc1cc(COc2nn(C)cc2C(N)=O)ccc1OCc1nc(-c2ccccc2)oc1C` [Example 268, 3-{[3-methoxy-4-(5-methyl-2-phenyl-1,3-oxazol-4-ylmethoxy)benzyl]oxy}-1-methyl-1H-pyrazole-4-carboxamide], which melting point is on record?
Answer: 168 to 169 °C

Question: Which melting point does the source give for `COc1cc(COc2nn(C)cc2C(=O)N(C)OC)ccc1OCc1nc(-c2ccccc2)oc1C` [Example 269, N-methoxy-N-methyl-3-{[3-methoxy-4-(5-methyl-2-phenyl-1,3-oxazol-4-ylmethoxy)benzyl]oxy}-1-methyl-1H-pyrazole-4-carboxamide] here?
Answer: 138 to 139 °C

Question: With `COc1cc(COc2nn(C)cc2C(C)=O)ccc1OCc1nc(-c2ccccc2)oc1C` [Example 270, 1-(3-{[3-methoxy-4-(5-methyl-2-phenyl-1,3-oxazol-4-ylmethoxy)benzyl]oxy}-1-methyl-1H-pyrazol-4-yl)ethanone] as the molecule, how does the melting point read?
Answer: 170 to 171 °C

Question: With `COc1cc(COc2nn(C)cc2C(C)O)ccc1OCc1nc(-c2ccccc2)oc1C` (stereo not drawn) [Example 271, 1-(3-{[3-methoxy-4-(5-methyl-2-phenyl-1,3-oxazol-4-ylmethoxy)benzyl]oxy}-1-methyl-1H-pyrazol-4-yl)ethanol] as the molecule, how does the melting point read?
Answer: 94 to 95 °C

Question: With `CCOC(=O)c1cn(-c2ccccc2)nc1OCc1ccc(OCc2nc(-c3ccccc3)oc2C)c(OC)c1` [Example 272, ethyl 3-{[3-methoxy-4-(5-methyl-2-phenyl-1,3-oxazol-4-ylmethoxy)benzyl]oxy}-1-phenyl-1H-pyrazole-4-carboxylate] as the molecule, how does the melting point read?
Answer: 160 to 161 °C

Question: For `COc1cc(COc2nn(-c3ccccc3)cc2C(=O)O)ccc1OCc1nc(-c2ccccc2)oc1C` [Example 273, 3-{[3-methoxy-4-(5-methyl-2-phenyl-1,3-oxazol-4-ylmethoxy)benzyl]oxy}-1-phenyl-1H-pyrazole-4-carboxylic acid], which melting point is on record?
Answer: 209 to 210 °C

Question: Which melting point does the source give for `COc1cc(COc2nn(-c3ccccc3)cc2C=O)ccc1OCc1nc(-c2ccccc2)oc1C` [Example 275, 3-{[3-methoxy-4-(5-methyl-2-phenyl-1,3-oxazol-4-ylmethoxy)benzyl]oxy}-1-phenyl-1H-pyrazole-4-carbaldehyde] here?
Answer: 142 to 143 °C

Question: With `COc1cc(COc2nn(-c3ccccc3)cc2C(N)=O)ccc1OCc1nc(-c2ccccc2)oc1C` [Example 276, 3-{[3-methoxy-4-(5-methyl-2-phenyl-1,3-oxazol-4-ylmethoxy)benzyl]oxy}-1-phenyl-1H-pyrazole-4-carboxamide] as the molecule, how does the melting point read?
Answer: 190 to 191 °C

Question: With `COc1cc(CC(=O)Nc2nn(-c3ccccc3)cc2C=O)ccc1OCc1nc(-c2ccccc2)oc1C` [Example 277, N-(4-formyl-1-phenyl-1H-pyrazol-3-yl)-2-{3-methoxy-4-[(5-methyl-2-phenyl-1,3-oxazol-4-yl)methoxy]phenyl}acetamide] as the molecule, how does the melting point read?
Answer: 156 to 158 °C

Question: For `COc1cc(COc2nn(-c3ccccc3)cc2C#N)ccc1OCc1nc(-c2ccccc2)oc1C` [Example 278, 3-{[3-methoxy-4-(5-methyl-2-phenyl-1,3-oxazol-4-ylmethoxy)benzyl]oxy}-1-phenyl-1H-pyrazole-4-carbonitrile], which melting point is on record?
Answer: 174 to 175 °C

Question: With `COc1cc(COc2nc(-c3ccccc3)ncc2C=O)ccc1OCc1nc(-c2ccco2)oc1C` [Example 280, 4-[(4-{[2-(2-furyl)-5-methyl-1,3-oxazol-4-yl]methoxy}-3-methoxybenzyl)oxy]-2-phenylpyrimidine-5-carbaldehyde] as the molecule, how does the melting point read?
Answer: 143 to 144 °C

Question: For `COc1cc(COc2nn(-c3ccccc3)cc2/C=C/C(=O)O)ccc1OCc1nc(-c2ccccc2)oc1C` [Example 281, (E)-3-(3-{[3-methoxy-4-(5-methyl-2-phenyl-1,3-oxazol-4-ylmethoxy)benzyl]oxy}-1-phenyl-1H-pyrazol-4-yl)-2-propenoic acid], which melting point is on record?
Answer: 188 to 189 °C
